Tests used:
[1] = molecular target: 5-hydroxytryptamine receptor 2A (Rattus norvegicus, UniProt P14842); assay: Binding affinity at 5-hydroxytryptamine 2A receptor of rat.
[2] = molecular target: T1, Adrenergic receptor alpha-2 (Rattus norvegicus, UniProt P22086+P19328+P22909); assay: Binding affinity at alpha-2 adrenergic receptors of rat.; type: protein assay
T1 sequence (P22086 whole entry): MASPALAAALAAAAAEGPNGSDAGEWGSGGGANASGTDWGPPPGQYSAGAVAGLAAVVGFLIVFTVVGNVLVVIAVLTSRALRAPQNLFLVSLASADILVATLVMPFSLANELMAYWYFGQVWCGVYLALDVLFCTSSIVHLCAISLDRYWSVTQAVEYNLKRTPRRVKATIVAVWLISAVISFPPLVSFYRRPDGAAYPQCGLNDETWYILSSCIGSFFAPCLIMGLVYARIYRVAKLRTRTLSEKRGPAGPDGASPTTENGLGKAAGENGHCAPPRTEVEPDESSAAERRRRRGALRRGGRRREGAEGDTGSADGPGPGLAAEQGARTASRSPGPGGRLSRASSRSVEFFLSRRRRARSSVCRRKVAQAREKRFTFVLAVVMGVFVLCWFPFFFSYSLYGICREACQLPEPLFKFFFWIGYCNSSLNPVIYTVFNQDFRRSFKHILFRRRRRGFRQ
T1 sequence (P19328 whole entry): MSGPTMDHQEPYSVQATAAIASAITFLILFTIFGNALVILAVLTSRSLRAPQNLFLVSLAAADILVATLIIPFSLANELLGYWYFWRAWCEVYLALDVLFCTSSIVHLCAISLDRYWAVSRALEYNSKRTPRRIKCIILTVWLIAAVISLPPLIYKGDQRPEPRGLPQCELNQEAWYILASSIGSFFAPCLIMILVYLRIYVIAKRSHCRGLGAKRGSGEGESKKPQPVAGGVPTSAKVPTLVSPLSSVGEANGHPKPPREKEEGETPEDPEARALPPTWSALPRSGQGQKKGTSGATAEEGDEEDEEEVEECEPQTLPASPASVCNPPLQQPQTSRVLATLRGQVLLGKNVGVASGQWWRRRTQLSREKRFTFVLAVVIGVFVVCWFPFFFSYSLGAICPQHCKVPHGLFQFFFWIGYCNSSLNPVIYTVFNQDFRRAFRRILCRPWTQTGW
T1 sequence (P22909 whole entry): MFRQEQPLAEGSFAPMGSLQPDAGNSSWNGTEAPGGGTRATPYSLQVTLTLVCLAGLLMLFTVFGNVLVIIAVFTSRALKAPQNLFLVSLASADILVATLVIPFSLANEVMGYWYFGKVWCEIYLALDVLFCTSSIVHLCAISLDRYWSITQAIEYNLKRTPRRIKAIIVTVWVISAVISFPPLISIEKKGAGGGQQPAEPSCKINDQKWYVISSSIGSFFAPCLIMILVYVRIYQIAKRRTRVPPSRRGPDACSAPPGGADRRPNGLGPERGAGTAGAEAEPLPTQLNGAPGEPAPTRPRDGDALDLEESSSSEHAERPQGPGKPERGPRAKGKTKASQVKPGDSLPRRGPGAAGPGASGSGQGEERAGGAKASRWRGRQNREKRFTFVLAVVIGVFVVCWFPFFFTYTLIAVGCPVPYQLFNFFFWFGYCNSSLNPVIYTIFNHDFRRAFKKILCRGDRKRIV

[3] = Binding affinity at rat imidazoline receptor I-2
[4] = molecular target: T2, Alpha-2A adrenergic receptor (Rattus norvegicus, UniProt P22909); assay: Binding affinity at alpha-2 adrenergic receptor of rat.
T2 sequence (P22909 whole entry): T1 sequence (P22909 whole entry)

[5] = molecular target: T3, Alpha-2B adrenergic receptor (Rattus norvegicus, UniProt P19328); assay: Binding affinity at alpha 2B adrenergic receptor of rat.
T3 sequence (P19328 whole entry): T1 sequence (P19328 whole entry)

5-hydroxytryptamine receptor 2A, sequence (P14842 whole entry): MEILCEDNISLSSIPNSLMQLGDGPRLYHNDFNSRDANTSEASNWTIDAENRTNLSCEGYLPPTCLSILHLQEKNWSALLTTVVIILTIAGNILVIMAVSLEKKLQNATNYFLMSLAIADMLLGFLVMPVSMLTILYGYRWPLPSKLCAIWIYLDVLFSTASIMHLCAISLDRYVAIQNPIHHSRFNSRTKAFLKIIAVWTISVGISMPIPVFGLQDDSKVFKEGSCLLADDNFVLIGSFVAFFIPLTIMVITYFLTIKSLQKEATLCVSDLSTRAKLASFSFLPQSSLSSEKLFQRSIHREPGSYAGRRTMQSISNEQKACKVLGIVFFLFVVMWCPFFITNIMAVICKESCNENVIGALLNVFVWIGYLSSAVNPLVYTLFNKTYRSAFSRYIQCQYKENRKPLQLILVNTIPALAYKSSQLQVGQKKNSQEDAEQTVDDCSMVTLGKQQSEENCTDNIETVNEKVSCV

Row | SMILES | Ki [1] | Ki [2] | Ki [3] | Ki [4] | Ki [5]
1 | Brc1cccc2[nH]c3c(c12)CCN=C3 | 180 nM | 3160 nM | 86 nM |  | 
2 | Brc1ccc2[nH]c3c(c2c1)CCN=C3 |  | 5290 nM | 790 nM |  | 
3 | Brc1cccc2[nH]c3c(c12)CCNC3 |  | 390 nM | 5.4 nM |  | 
4 | COc1ccc2c(c1)[nH]c1cnccc12 |  |  | 87 nM |  | 
5 | COc1cccc2[nH]c3c(c12)CCN=C3 |  | 330 nM | 84 nM |  | 
6 | Cn1c2c(c3ccccc31)CCNCC2 [PNU-22394] |  | 415 nM | 1030 nM |  | 
7 | Brc1cccc2c3c([nH]c12)C=NCC3 |  | 815 nM | 17 nM |  | 
8 | Brc1ccc2[nH]c3c(c2c1)CCNC3 |  | 11500 nM | 2780 nM |  | 
9 | Brc1cccc2c3c([nH]c12)CNCC3 |  |  | 3.6 nM | 460 nM | 
10 | COc1ccc2c3c([nH]c2c1)C=NCC3 [CGS-19281A] |  | > 10000 nM | 18 nM |  | 
11 | C1=NCCc2c1[nH]c1ccccc21 |  | 700 nM | 7.3 nM |  | 
12 | COc1cccc2c3c([nH]c12)C=NCC3 |  | 5020 nM | 160 nM |  | 
13 | NCc1c[nH]c2ccccc12 |  | 14700 nM | 3440 nM |  | 
14 | COc1cccc2[nH]c3c(c12)CCNC3 |  | 825 nM | 300 nM |  | 
15 | Brc1ccc2c3c([nH]c2c1)C=NCC3 |  | 10700 nM | 400 nM |  | 
16 | NCCc1c[nH]c2ccccc12 [TRYPTAMINE] |  | 19000 nM | 5400 nM |  | 
17 | COc1cc(Br)c2c3c([nH]c2c1)CNCC3 |  |  | 1740 nM |  | 
18 | c1ccc2c3c([nH]c2c1)CNCC3 [TRYPTOLINE] |  |  | 9.4 nM |  | 
19 | COc1ccc2[nH]c3c(c2c1)CCN=C3 |  | 2190 nM | 480 nM |  | 
20 | COc1ccc2c(c1)[nH]c1c(C)nccc12 [HARMINE] |  |  | 49 nM |  | 
21 | Brc1ccc2c3c([nH]c2c1)CNCC3 |  | 15500 nM | 1290 nM |  | 
22 | Cn1c2c(c3ccccc31)CCNC2 |  |  | 5.4 nM |  | 
23 | c1ccc2c3c([nH]c2c1)CCNC3 |  | 600 nM | 4.7 nM |  | 
24 | COc1ccc2[nH]c3c(c2c1)CCNC3 |  | 7830 nM | 1640 nM |  | 
25 | COc1cccc2c3c([nH]c12)CNCC3 |  | 640 nM | 270 nM |  | 
26 | COc1ccc2c3c([nH]c2c1)CNCC3 | > 1000 nM |  |  |  | 140 nM

Reference: ChEMBL document CHEMBL1149219, “Binding of beta-carbolines at imidazoline I2 receptors: a structure-affinity investigation” (Bioorg Med Chem Lett, 2004)
